# Experimental data published in ChEMBL document CHEMBL3792354, “Design, synthesis and evaluation of novel ferulic acid-memoquin hybrids as potential multifunctional agents for the treatment of Alzheimer's disease” (Bioorg Med Chem Lett, 2016).
# How the values were obtained:
# [1] = target: Amyloid-beta precursor protein (Homo sapiens) (UniProt P05067); experiment: Inhibition of self-induced amyloid beta (1 to 42) aggregation (unknown origin) at 25 uM by Thioflavin T-based fluorometric assay
# Acetylcholinesterase = Acetylcholinesterase (Electrophorus electricus, UniProt O42275); experiment: Inhibition of Electrophorus electricus AChE pre-incubated for 15 mins before acetylthiocholine chloride substrate addition by Ellman assay
# [2] = Antioxidant activity assessed as AAPH radical scavenging activity by measuring Trolox equivalent per microM of test compound measured every minute for 90 mins by ORAC-FL assay; assay type: physicochemical; details: 1.5 h
# [3] = target: Cholinesterase (Equus caballus) (UniProt P81908); experiment: Inhibition of equine serum BuChE at 50 uM pre-incubated for 15 mins before butylthiocholine chloride substrate addition by Ellman assay
# in vitro = details: PAMPA
# Description: Permeability of the compound at 100 ug/ml by PAMPA-BBB assay
# [4] = target: Amyloid-beta precursor protein (Homo sapiens) (UniProt P05067); experiment: Induction of disaggregation of self-induced amyloid beta (1 to 42) fibril formation (unknown origin) at 25 uM incubated for 24 hrs by Thioflavin T-based fluorometric assay
# [5] = target: Amyloid-beta precursor protein (Homo sapiens) (UniProt P05067); experiment: Inhibition of self-induced amyloid beta (1 to 42) aggregation (unknown origin) by Thioflavin T-based fluorometric assay
# [6] = Toxicity in human SH-SY5Y cells assessed as cell viability at 10 uM incubated for 24 hrs by MTT assay; assay type: cell-based; details: read-out: Activity
# SH-SY5Y [7] = experiment: Neuroprotective activity against hydrogen peroxide-induced cell injury in human SH-SY5Y cells assessed as cell viability incubated for 3 hrs after H2O2 exposure for 24 hrs by MTT assay; assay type: functional, cell-based
# [8] = target: Amyloid-beta precursor protein (Homo sapiens) (UniProt P05067); experiment: Inhibition of self-induced amyloid beta (1 to 42) aggregation (unknown origin) at 50 uM by Thioflavin T-based fluorometric assay
# SH-SY5Y [9] = experiment: Neuroprotective activity against hydrogen peroxide-induced cell injury in human SH-SY5Y cells assessed as cell viability at 10 uM incubated for 3 hrs after H2O2 exposure for 24 hrs by MTT assay; assay type: functional; details: read-out: Activity
# SH-SY5Y [10] = experiment: Neuroprotective activity against hydrogen peroxide-induced cell injury in human SH-SY5Y cells assessed as cell viability at 1 uM incubated for 3 hrs after H2O2 exposure for 24 hrs by MTT assay; assay type: functional; details: read-out: Activity
# [11] = target: Amyloid-beta precursor protein (Homo sapiens) (UniProt P05067); experiment: Inhibition of self-induced amyloid beta (1 to 42) aggregation (unknown origin) at 10 uM by Thioflavin T-based fluorometric assay
# Sequence of Cholinesterase (Equus caballus) (P81908 whole entry): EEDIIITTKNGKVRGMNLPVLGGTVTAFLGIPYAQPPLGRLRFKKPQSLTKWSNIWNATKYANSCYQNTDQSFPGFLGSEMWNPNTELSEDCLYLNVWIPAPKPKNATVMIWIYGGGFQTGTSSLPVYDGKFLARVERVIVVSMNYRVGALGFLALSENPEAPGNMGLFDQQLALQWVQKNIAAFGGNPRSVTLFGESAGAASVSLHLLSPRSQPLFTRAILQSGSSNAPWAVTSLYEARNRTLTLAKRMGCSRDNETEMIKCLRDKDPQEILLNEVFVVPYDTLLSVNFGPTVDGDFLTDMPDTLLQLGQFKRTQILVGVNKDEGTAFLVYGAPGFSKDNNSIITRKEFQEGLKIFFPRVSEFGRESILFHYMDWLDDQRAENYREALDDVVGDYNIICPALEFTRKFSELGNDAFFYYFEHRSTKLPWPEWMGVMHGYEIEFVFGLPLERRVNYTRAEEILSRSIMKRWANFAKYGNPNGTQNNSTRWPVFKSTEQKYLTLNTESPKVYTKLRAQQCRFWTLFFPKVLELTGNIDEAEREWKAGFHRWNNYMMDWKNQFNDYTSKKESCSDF
# Sequence of Acetylcholinesterase (O42275 whole entry): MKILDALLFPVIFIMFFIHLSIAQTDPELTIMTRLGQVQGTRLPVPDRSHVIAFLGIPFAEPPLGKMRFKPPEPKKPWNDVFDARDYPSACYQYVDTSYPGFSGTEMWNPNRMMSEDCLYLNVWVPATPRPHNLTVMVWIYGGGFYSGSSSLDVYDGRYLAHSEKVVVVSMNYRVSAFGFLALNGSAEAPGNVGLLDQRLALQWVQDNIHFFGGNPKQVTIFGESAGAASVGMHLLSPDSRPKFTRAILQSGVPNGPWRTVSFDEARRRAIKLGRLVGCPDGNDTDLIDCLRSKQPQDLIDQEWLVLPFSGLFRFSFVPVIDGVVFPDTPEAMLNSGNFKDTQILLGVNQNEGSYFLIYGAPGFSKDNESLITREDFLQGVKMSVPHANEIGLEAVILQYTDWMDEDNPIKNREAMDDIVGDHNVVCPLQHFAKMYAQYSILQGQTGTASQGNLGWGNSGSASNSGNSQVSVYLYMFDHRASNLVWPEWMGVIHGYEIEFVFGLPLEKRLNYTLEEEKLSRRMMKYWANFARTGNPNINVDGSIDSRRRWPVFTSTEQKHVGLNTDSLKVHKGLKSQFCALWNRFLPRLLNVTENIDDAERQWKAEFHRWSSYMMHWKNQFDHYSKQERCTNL
# Sequence of Amyloid-beta precursor protein (Homo sapiens) (P05067 whole entry): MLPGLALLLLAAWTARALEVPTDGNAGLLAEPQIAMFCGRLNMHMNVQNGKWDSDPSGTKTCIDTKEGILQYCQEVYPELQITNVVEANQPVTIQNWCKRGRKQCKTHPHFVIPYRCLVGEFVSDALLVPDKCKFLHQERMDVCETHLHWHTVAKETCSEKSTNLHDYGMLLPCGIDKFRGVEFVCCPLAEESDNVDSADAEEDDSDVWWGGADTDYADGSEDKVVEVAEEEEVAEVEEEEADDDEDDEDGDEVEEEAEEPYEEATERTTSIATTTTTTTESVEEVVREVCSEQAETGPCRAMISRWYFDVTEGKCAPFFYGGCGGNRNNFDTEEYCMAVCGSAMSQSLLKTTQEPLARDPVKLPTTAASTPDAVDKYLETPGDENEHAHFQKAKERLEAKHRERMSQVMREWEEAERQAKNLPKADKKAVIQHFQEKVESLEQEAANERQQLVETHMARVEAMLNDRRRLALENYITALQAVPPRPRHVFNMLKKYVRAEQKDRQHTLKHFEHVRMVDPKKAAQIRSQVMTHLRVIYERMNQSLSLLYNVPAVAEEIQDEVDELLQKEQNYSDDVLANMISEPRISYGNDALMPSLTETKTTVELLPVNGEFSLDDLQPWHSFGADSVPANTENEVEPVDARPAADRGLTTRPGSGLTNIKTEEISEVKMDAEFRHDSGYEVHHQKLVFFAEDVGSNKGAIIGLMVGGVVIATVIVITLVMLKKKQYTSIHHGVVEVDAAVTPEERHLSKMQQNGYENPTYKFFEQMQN
Compound,inhibition [1] [%],IC50 (Acetylcholinesterase) [µM],Activity [2] [equiv],inhibition [3] [%],other results
COc1cc(/C=C/C(=O)NCCCCCCN(C)Cc2ccccc2)ccc1O,31.2,15.1,1.2,< 5,–
CCN(CCCCNC(=O)/C=C/c1ccc(O)c(OC)c1)Cc1ccccc1,33.8,16.5,1.1,< 5,–
CN1C(C(=O)Nc2ccccn2)=C(O)c2ccccc2S1(=O)=O [PIROXICAM],–,–,–,–,Papp at 100 ug/ml (in vitro): 0.63 ×10⁻⁶ cm/s
CCN(CCCCCCNC1=CC(=O)C(NCCCCCCN(CC)Cc2ccccc2OC)=CC1=O)Cc1ccccc1OC [MEMOQUIN],72.7,0.0067,–,5.8,–
COc1cc(/C=C/C(=O)O)ccc1O [FERULATE],28.3,> 100,1.1,< 5,–
CCN(CCCNC(=O)/C=C/c1ccc(O)c(OC)c1)Cc1ccccc1OC,35.2,15.9,1.1,31.4,–
COc1cc(/C=C/C(=O)NCCCCCCN(C)Cc2ccccc2OC)ccc1O,36.6,8.5,1.3,27.6,–
COc1cc(/C=C/C(=O)NCCCN(C)Cc2ccccc2)ccc1O,39.1,34.7,1.2,< 5,–
CCN(CCCCCCNC(=O)/C=C/c1ccc(O)c(OC)c1)Cc1ccccc1,37.4,8.2,1.1,17.2,–
COc1cc(/C=C/C(=O)CC(=O)/C=C/c2ccc(O)c(OC)c2)ccc1O,–,–,–,–,Activity [4]: 57.6%
CCn1cc(C(=O)O)c(=O)c2cc(F)c(N3CCNC(C)C3)c(F)c21 (stereo not drawn) [LOMEFLOXACIN],–,–,–,–,Papp at 100 ug/ml (in vitro): 0.52 ×10⁻⁶ cm/s
CCN(CCCNC(=O)/C=C/c1ccc(O)c(OC)c1)Cc1ccccc1,33.3,31.4,0.9,< 5,–
CCN(CCCCNC(=O)/C=C/c1ccc(O)c(OC)c1)Cc1ccccc1OC,38.3,8.6,1.3,< 5,–
CC(=O)[C@H]1CC[C@H]2[C@@H]3CCC4=CC(=O)CC[C@]4(C)[C@H]3CC[C@]12C [PROGESTERONE],–,–,–,–,Papp at 100 ug/ml (in vitro): 15.9 ×10⁻⁶ cm/s
CCN(CCCCCCNC(=O)/C=C/c1ccc(O)c(OC)c1)Cc1ccccc1OC,38.1,3.2,1.2,36.2,"inhibition [5]: Dose-dependent effect; Papp at 100 ug/ml (in vitro): 5.53 ×10⁻⁶ cm/s; viability at 24 h, 10 µM [6]: 98.3%; Activity (SH-SY5Y [7]): Dose-dependent effect; inhibition [8]: 49.3%; Activity [4]: 45.5%; viability at 10 µM (SH-SY5Y [9]): 88.3%; viability at 1 µM (SH-SY5Y [10]): 68.6%; inhibition [11]: 26.8%"
COc1cc(/C=C/C(=O)NCCCN(C)Cc2ccccc2OC)ccc1O,30.8,25.1,1.3,15.8,–
COc1cc(/C=C/C(=O)NCCCCN(C)Cc2ccccc2)ccc1O,31.6,29.6,1.3,< 5,–
COc1cc(/C=C/C(=O)NCCCCN(C)Cc2ccccc2OC)ccc1O,32.5,18,1.2,34.6,–
